Patent US20200247761A1, “SULFONAMIDE OR AMIDE COMPOUNDS, COMPOSITIONS AND METHODS FOR THE PROPHYLAXIS AND/OR TREATMENT OF AUTOIMMUNE, INFLAMMATION OR INFECTION RELATED DISORDERS” (TAIWANJ PHARMACEUTICALS CO., LTD, priority 2017, published 2020)
Where two headings read alike, the source gives them in different places.

Key:
Type in all cases: cell-based
[1] = test system: mTNF-α secretion from LPS-stimulated RAW264.7 monocytes; experiment: LPS induced mTNF-α release from RAW264.7 cells (ELISA); conditions: Mus musculus
Procedure: To confirm whether the inhibitory effect of the selected compounds of example 2.1 (i.e., Compounds 12, 15, 19, 20, 22, 24, 28, 30, 32, 34, 36, 38, 40, 42, 44, 45, 49, 50, 52 and 70) translates to anti-inflammation, they were further tested to see if any of them may suppress mTNF-α secretion from lipopolysaccharide (LPS)-stimulated RAW264.7 monocytes.
To this purpose, RAW264.7 cells were seeded at 1.6×10^5 cells/well into 96-well culture plates. Test compounds (i.e., Compounds 12, 15, 19, 20, 22, 24, 28, 30, 32, 34, 36, 38, 40, 42, 44, 45, 49, 50, 52 and 70, respectively at 10 μM) were added into the culture plates in triplicate and co-cultured at 37° C. in 5% CO2 for 30 minutes. LPS (final conc. 10 ng/ml/well) was then added into the culture plates and the cells were incubated for another 4 hours. At the end of culture, the cultured media were harvested for mTNF-α quantification by ELISA with commercial assay kits (R&D Systems, Minneapolis, Minn.) following the manufacturer's protocol. Signals of the individual samples in 96-well plates were detected at O.D.450 nm/570 nm with a Molecular Devices SpectraMax i3 Imaging Cytometer. The mTNF-α activity was expressed in percentage of viable LPS-stimulated cells without test compound treatment.

[2] = molecular target: T1, Toll-like receptor 4 (TLR4) (Homo sapiens, UniProt O00206); experiment: TLR4 activity: NF-κB-inducible SEAP reporter in LPS-stimulated TLR4-expressing HEK293 cells; conditions: for inhibition at 10 µM: Test Con. 10 μM, LPS 10 ng/ml, 16-24 hours, HEK293 cells expressing TLR4, read-out: TLR-4 inhibition (%) mean; for activity towards TLR-4 (in words): summary of Table 1 (10, 20 or 100 μM)
T1 construct: expressed in transfected cells; host or cells: HEK293 cells engineered to express TLR4
Procedure: Stimulation of the Toll-like receptor 4 (TLR4) was determined by assessing activation of the transcription factor NF-κB in HEK293 cells that were engineered to express TLR4. Assessment of TLR4 stimulation was based on the use of an NE-κB-inducible secreted alkaline phosphatase (SEAP) reporter system in which the SEAP reporter was under the control of a promoter inducible by NF-κB. Thus, the degree of activation of TLR4 can be indirectly quantified spectrophotometrically by measuring the amount of the SEAP reporter that is produced.
The TLR4-expressing cells were plated in HEK-Blue Detection (Invivogen, San Diego, Calif.) medium in a 96-well plate (25,000-50,000 cells/well). The cells were stimulated with lipopolysaccharides (LPS) alone or in combination with the compound of Example 1. Cell culture without LPS and the compound of Example 1 was defined as baseline control. To test whether the compound of Example 1 could block that activation of the TLR4, the cells were treated with the designated compound (10, 20 or 100 μM) and LPS (final conc. 10 ng/ml/well). After an incubation period (16-24 hours) at 37° C. in a CO2 incubator, the signals of individual samples in 96-well plates were detected at O.D.650 nm with a Molecular Devices SpectraMax i3 Imaging Cytometer. The TLR4 activity was expressed in percentage of LPS alone-stimulated cells minus baseline control.

[3] = test system: RAW264.7 cells; experiment: Cell viability (MTT) of RAW264.7 cells; conditions: for Cell Viability (%) mean: Test Con. 10 μM, MTT, RAW264.7 cells, percentage of viable LPS-stimulated cells; for toxic activity toward RAW264.7 cells (in words): Table 2, 10 μM
Procedure: (§1) RAW264.7 cells (1.6×10^5 cells/well) or HEK 293 cells (2.5-5.0×10^4 cells/well) were seeded in 96-well plate overnight and treated with different compounds for 16-24 hours. Cells' growth were determined by MTT-based colorimetric assays. Viability of the test cells treated with vehicle (0.5% DMSO) only was defined as 100% viable. Survival of cells after treatment with DETDs was calculated using the following formula: viable cell number (%)=OD570 (treated cell culture)/OD570 (vehicle control)×100.
The cell viability assay was performed by the MTT method, in which cells were incubated with 45 μl of 5 mg/ml MTT for 1 hour at 37° C., and 150 μl of DMSO was added at the end of culture to dissolve the crystals. The signals of individual samples in 96-well plates were detected at O.D.570 nm with a Molecular Devices SpectraMax i3 Imaging Cytometer. Cell viability was expressed in percentage of viable LPS-stimulated cells.

[4] = test system: HEK293 cells; experiment: Cell viability (MTT) of the TLR4-expressing HEK293 cells; conditions: Test Con. 10 μM, percentage of viable LPS-stimulated cells
Procedure: as §1
The cell viability assay was performed by the MTT method. Cells were incubated with 45 μl of 5 mg/ml MTT for 1 hour at 37° C., and 150 μl of DMSO was added at the end of culture to dissolve the crystals. The signals of individual samples in 96-well plates were detected at O.D.570 nm with a Molecular Devices SpectraMax i3 Imaging Cytometer. Cell viability was expressed in percentage of viable LPS-stimulated cells.

[5] = RAW264.7, Table 2, 10 μM, read-out: inhibition of LPS induced mTNF-α release from RAW264.7 cells
[6] = Test Con. 10 μM, LPS 10 ng/ml, 4 hours, RAW264.7 cells, read-out: mTNF-α inhibition (%) mean

T1 sequence (O00206 24-839, species assumed): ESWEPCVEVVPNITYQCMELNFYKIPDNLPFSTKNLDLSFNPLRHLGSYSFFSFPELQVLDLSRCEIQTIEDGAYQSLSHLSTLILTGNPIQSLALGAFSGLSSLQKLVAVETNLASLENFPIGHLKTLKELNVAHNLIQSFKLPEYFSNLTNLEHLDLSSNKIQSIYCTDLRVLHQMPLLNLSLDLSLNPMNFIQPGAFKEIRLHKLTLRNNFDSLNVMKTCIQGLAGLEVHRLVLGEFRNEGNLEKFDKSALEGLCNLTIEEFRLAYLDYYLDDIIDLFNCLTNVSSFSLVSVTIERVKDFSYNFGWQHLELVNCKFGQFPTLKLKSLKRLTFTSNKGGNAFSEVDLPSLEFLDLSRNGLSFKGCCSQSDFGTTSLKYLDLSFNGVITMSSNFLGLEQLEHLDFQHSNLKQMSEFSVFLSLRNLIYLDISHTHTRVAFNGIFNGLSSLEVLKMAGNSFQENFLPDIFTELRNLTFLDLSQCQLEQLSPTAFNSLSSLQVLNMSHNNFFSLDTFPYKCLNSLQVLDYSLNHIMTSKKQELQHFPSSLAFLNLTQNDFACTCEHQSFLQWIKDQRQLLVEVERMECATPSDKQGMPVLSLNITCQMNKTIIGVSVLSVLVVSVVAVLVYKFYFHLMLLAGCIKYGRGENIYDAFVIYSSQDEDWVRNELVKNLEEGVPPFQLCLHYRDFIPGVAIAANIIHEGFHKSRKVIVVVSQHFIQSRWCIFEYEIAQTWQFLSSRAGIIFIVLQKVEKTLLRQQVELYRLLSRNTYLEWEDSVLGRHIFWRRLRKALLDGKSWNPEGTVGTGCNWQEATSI
T1 sequence (Q9Y6Y9 17-160 partner limits assumed, species assumed): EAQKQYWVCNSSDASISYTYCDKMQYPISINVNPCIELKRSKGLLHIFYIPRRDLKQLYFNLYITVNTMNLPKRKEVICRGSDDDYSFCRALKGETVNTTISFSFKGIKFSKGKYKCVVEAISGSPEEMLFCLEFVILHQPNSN

Row | Compound | inhibition at 10 µM [1, 5] [%] | inhibition at 10 µM [1, 6] [%] | inhibition at 10 µM [2] [%] | activity towards TLR-4 (in words) [2] | Cell Viability (%) mean [3] [%] | Cell Viability (%) mean [4] [%] | toxic activity toward RAW264.7 cells (in words) [3]
1 | C=CC(=O)N1CCCc2cccc(S(=O)(=O)Nc3ccc(F)cc3F)c21 [Compound 15] | 85 to 100 | 94.7 | 100 | strong antagonist | 52.4 | 84.1 | –
2 | C=CC(=O)N(c1ccc(F)cc1Cl)S(=O)(=O)c1c(C)oc(C)c1C(=O)OC [Compound 42] | 85 to 100 | 98.6 | 100 | strong antagonist | 27.8 | 72.4 | –
3 | C=CC(=O)N(c1ccc(F)cc1Cl)S(=O)(=O)c1ccccc1[N+](=O)[O-] [Compound 22] | ~40 | 45.7 | 63 | moderate inhibitory activity | 96.4 | 109.9 | negligible to no toxic activity
4 | C=CC(=O)N(c1ccc(F)cc1Cl)S(=O)(=O)c1c(C)noc1C [Compound 34] | 85 to 100 | 98.5 | 100 | strong antagonist | 53.9 | 63.0 | –
5 | C=CC(=O)Nc1ccccc1S(=O)(=O)Nc1ccc(F)cc1Cl [Compound 44] | 85 to 100 | 94.1 | 100 | strong antagonist | 96.1 | 81.4 | negligible to no toxic activity
6 | C=CC(=O)N(c1ccc(F)cc1Cl)S(=O)(=O)N1CCCC1 [Compound 50] | 85 to 100 | 86.1 | 76 | moderate inhibitory activity | 97.6 | 85.1 | negligible to no toxic activity
7 | C=CC(=O)c1ccccc1S(=O)(=O)N(C)c1ccccc1 [Compound 70] | 85 to 100 | 100 | 100 | strong antagonist | 69.6 | 79.7 | –
8 | C=CC(=O)N(c1ccc(F)cc1Cl)S(=O)(=O)c1ccccc1 [Compound 19] | 85 to 100 | 96.1 | 100 | strong antagonist | 38.1 | 80 | –
9 | C=CC(=O)N(c1ccc(F)cc1Cl)S(=O)(=O)c1ccc(F)cc1Cl [Compound 30] | 85 to 100 | 82.9 | 94.8 | strong antagonist | 99.7 | 94.0 | negligible to no toxic activity
